Laboratory results: patent publication US20240247030A1, “TARGETED DELIVERY OF TERTIARY AMINE-CONTAINING DRUG SUBSTANCES” (Seagen Inc., priority 2014, published 2024)
Values after ≈ are worked out from the molar mass of the structure shown.

What was measured:
HCT-116 CRC cells = type: cell-based; details: Table 14; cOKT-9 conjugate, 96 hours
Protocol: (§1) In vitro assays. Cells cultured in log-phase growth were seeded for 24 h in 96-well plates containing 150 μL RPMI 1640 supplemented with 20% FBS. Serial dilutions of antibody-drug conjugates in cell culture media were prepared at 4× working concentrations; 50 μL of each dilution was added to the 96-well plates. Following addition of ADC, cells were incubated with test articles for 4 d at 37° C. After 96 h, growth inhibition was assessed by CellTiter-Glo™ (Promega, Madison, W1) and luminescence was measured on a plate reader. The IC50 value, determined in triplicate, is defined here as the concentration that results in a 50% reduction in cell growth relative to untreated controls.

KM-H2 HL cells = type: cell-based; details: Table 14; cOKT-9 conjugate, 96 hours
[1] = system: co-culture of L540cy:U268Luc+ cells; test: In vitro cytotoxicity, bystander co-culture; type: cell-based; details: cAC10 conjugate obtained from compound 30; CD30+ and CD30- cells co-cultured
Protocol: as §1
The results of Table 2 and Table 3 indicate that potent and immunologically specific Ligand Drug Conjugates are obtained when a tubulysin is incorporated into such constructs as a quaternized drug unit and that such conjugates are active against multi-resistant cell lines. […] L540cy are CD30+ and U266 are CD30^−

L428 MDR+ HL cells = test: In vitro cytotoxicity (CellTiter-Glo, 96 h); type: cell-based; details: 96 hours; for IC50, L428, MDR+ HL: Table 14, cOKT-9 conjugate
[2] = system: L540cy Hodgkin lymphoma cells; test: In vitro cytotoxicity (CellTiter-Glo, 96 h); type: cell-based; details: Table 14; cOKT-9 (anti-transferrin receptor) conjugate, DAR 8 (30) or 6.7 (192), 96 hours
HL60 AML cells = test: cells; type: cell-based; details: 96 hours; for IC50, HL60, AML: Table 14, cOKT-9 conjugate; for IC50: Homo sapiens, HL-60, 96 h, read-out: IC50, HL60, AML, Table 13, free drug
Protocol: as §1

786-O RCC cells = test: In vitro cytotoxicity (CellTiter-Glo, 96 h); type: cell-based; details: Homo sapiens, 786-0, 96 h, read-out: IC50, 786-O, MDR+ RCC
HEL9217 AML cells = test: In vitro cytotoxicity (CellTiter-Glo, 96 h); type: cell-based; details: Homo sapiens, HEL 92.1.7, 96 h, read-out: IC50, HEL9217, MDR+ AML
panel of cell lines = test: In vitro cytotoxicity, statements across a panel of cell lines; type: cell-based; details: cOKT-9 conjugates, cell lines of Table 14
Protocol: as §1

[3] = J. Med. Chem., 2009, 52, 238-240; cited from earlier work

SMILES | IC50, HCT-116, CRC (HCT-116 CRC cells) [ng/mL] | IC50, KM-H2 MDR+ HL (KM-H2 HL cells) [ng/mL] | IC50, L428, MDR+ HL (L428 MDR+ HL cells) [ng/mL] | IC50, L540cy, HL [2] [ng/mL] | IC50, HL60, AML (HL60 AML cells) [ng/mL] | IC50 (HEL9217 AML cells) [nM] | IC50 (HL60 AML cells) [nM] | other results
CC[C@H](C)[C@H](NC(=O)[C@H]1CCCC[N+]1(C)Cc1ccc(NC(=O)[C@H](C)NC(=O)[C@@H](NC(=O)CCCCCN2C(=O)C=CC2=O)C(C)C)cc1)C(=O)N(C)[C@H](C[C@@H](OC(C)=O)c1nc(C(=O)N[C@@H](Cc2ccccc2)C[C@H](C)C(=O)O)cs1)C(C)C (stereo partly drawn) [Compound 30, (2R)-2-(((2S,3S)-1-(((1R,3R)-1-acetoxy-1-(4-(((2R,4S)-4-carboxy-1-phenylpentan-2-yl)carbamoyl)thiazol-2-yl)-4-methylpentan-3-yl)(methyl)amino)-3-methyl-1-oxopentan-2-yl)carbamoyl)-1-(4-((S)-2-((S)-2-(6-(2,5-dioxo-2,5-dihydro-1H-pyrrol-1-yl)hexanamido)-3-methylbutanamido)propanamido)benzyl)-1-methylpiperidin-1-ium] | 1 | <0.26 | 0.4 | 1 | 6 |  |  | IC50 against a co-culture of L540cy:U268Luc+ cells [1]: 6 ng/mL
CC[C@H](C)[C@H](NC(=O)[C@H]1CCCCN1C)C(=O)N(C)[C@H](C[C@@H](OC(C)=O)c1nc(C(=O)N[C@@H](Cc2ccccc2)C[C@H](C)C(=O)NN)cs1)C(C)C [Compound 190, (1R,3R)-3-((2S,3S)—N,3-dimethyl-2-((R)-1-methylpiperidine-2-carboxamido)pentanamido)-1-(4-(((2R,4S)-5-hydrazinyl-4-methyl-5-oxo-1-phenylpentan-2-yl)carbamoyl)thiazol-2-yl)-4-methylpentyl acetate] |  |  |  |  |  | 4 | 0.8 | IC50 (786-O RCC cells): 4 nM; IC50 (L428 MDR+ HL cells; Homo sapiens, L-428, 96 h, read-out: IC50, L428, MDR+ HL, Table 13, free drug): 1 nM
CC[C@H](C)[C@H](NC(=O)[C@H]1CCCCN1C)C(=O)N(C)[C@H](C[C@@H](OC(C)=O)c1nc(C(=O)N[C@@H](Cc2ccccc2)C[C@H](C)C(=O)O)cs1)C(C)C [Compound 26, Tubulysin M, reference compound] |  |  |  |  |  | 0.4 | 0.2 | 
CC[C@H](C)[C@H](NC(=O)[C@H]1CCCCN1C)C(=O)N(C)[C@H](C[C@@H](OC(C)=O)c1nc(C(=O)N[C@@H](Cc2ccccc2)C[C@H](C)C(=O)NNC(=O)OCc2ccc(NC(=O)[C@H](CCCNC(N)=O)NC(=O)[C@@H](NC(=O)CCCCCN3C(=O)C=CC3=O)C(C)C)cc2)cs1)C(C)C [Compound 192, 4-((S)-2-((S)-2-(6-(2,5-dioxo-2,5-dihydro-1H-pyrrol-1-yl)hexanamido)-3-methylbutanamido)-5-ureidopentanamido)benzyl 2-((2S,4R)-4-(2-((1R,3R)-1-acetoxy-3-((2S,3S)—N,3-dimethyl-2-((R)-1-methylpiperidine-2-carboxamido)pentanamido)-4-methylpentyl)thiazole-4-carboxamido)-2-methyl-5-phenylpentanoyl)hydrazinecarboxylate] | 302 (≈ 0.225 µM) | 56 (≈ 0.0418 µM) | 284 (≈ 0.212 µM) | 117 (≈ 0.0873 µM) | 85 (≈ 0.0634 µM) |  |  | less potent than the quaternary amine-linked TubM (30) conjugate (panel of cell lines): 1-3 logs
CC[C@H](C)[C@H](NC(=O)[C@H]1CCCCN1C)C(=O)N[C@H](C[C@@H](O)c1nc(C(=O)N[C@@H](Cc2ccccc2)C[C@H](C)C(=O)O)cs1)C(C)C [tubulysin V, Tubulysin V] |  |  |  |  |  |  |  | loss of potency on deacetylation of tubulysin U [3]: > 100 fold
